Measurements published in US20210145830A1, “MATERIALS AND METHODS FOR TREATING CANCER” (Mayo Foundation for Medical Education and Research, priority 2018, published 2021).
“Also recorded” adds a separate entry of the source.

What was measured:
Type in all cases: cell-based
CART cells = test: In vitro CART19 exhaustion assay
Method: (§1) FIG. 11 contains an exemplary timeline for an in vitro CART19 exhaustion assay in the presence of TP0903. T cells were incubated with target cells at a 1:5 ratio (experiments were done using JEKO cells as well as primary B cells). The low E:T ratio was used to induce a state of dysfunction of CART cells. Cells were cultured in the presence of increasing doses of TP0903. On day 5 of co-culture, cells were harvested, and expression of inhibitory receptors was analyzed. Co-culture in the presence of TP0903 reduces expression of PD1, TIM3, and LAG3 inhibitory receptors.
as §1, with “T” for “FIG. 11 contains an exemplary timeline for an in vitro CART19 exhaustion assay in the presence of TP0903. T”, “reduced” for “reduces”, “receptors. TP0903 reduced exhaustion receptors on CART cells (FIG. 12).” for “receptors.”

[1] = test system: p-LCK, p38MAPK, GATA-3, T-bet in CART19 cells; test: Western blot of signaling molecules in stimulated CART19 cells
CART19 and UTDs = test: Ex vivo T cell expansion and CART generation with TP0903; conditions: low dose TP0903 during ex vivo manufacture
Source text: FIG. 14 contains graphs showing CART19 or untransduced T cell expansion with or without varied concentrations of TP0903. Low dose TP0903 enhanced the expansion of CART19 and UTDs during ex vivo manufacture of CARTs.
The murine anti-CD19 chimeric antigen receptor (single chain variable fragment derived from clone FMC63, CD8 hinge, 4-1BB costimulatory domain and CD3 zeta signaling domain) was generated de novo and cloned into a third generation lentivirus. Normal donor T cells were […] selected using negative selection Kit (Stem Cell), and expanded in vitro using anti-CD3/CD28 Dynabeads (Invitrogen, Life Technologies, Grand Island, N.Y., USA, added on the first day of culture). T cells were transduced with lentiviral supernatant one day following stimulation at a multiplicity of infection (MOI) of 3. The anti-CD3/CD28 Dynabeads were removed on day 6 and T cells were grown in T cell media (X-vivo 15 media, human serum 5%, penicillin, streptomycin and glutamax). CART cells were then cryopreserved on day 8 for future experiments. Prior to all experiments, T cells were thawed and rested overnight at 37° C.
CART cells were generated with increasing doses of TP0903. T cells were isolated (negative selection, STEM CELL kit) and stimulated with CD3/CD28 beads on day 0. On day 1, T cells were transduced with CAR19 lentivirus at MOI of 3. […]

[2] = test system: p-LCK, p38MAPK, GATA-3, T-bet in CART19 cells; test: Western blot of signaling molecules in stimulated CART19 cells; remark: listed apart in the source
Method: FIG. 24A-B. A. Western blot analysis of p-LCK inhibition by TP0903 in CART19 cells. CART19 cells were incubated with lethally irradiated JeKo-1 in the presence of TP0903 at a 1 to 3 ratio for 24 hours. After the incubation, CART19 cells were purified with anti-CD19 micro beads. […] B. Comparison of gene expression between TP0903 treated CART19 cells and non-treated CART19 cells subpopulations using RNA-seq. CART19 cells from three biological replicates were thawed and stimulated with irradiated JeKo-1 (120 Gy) for 5 days. Each sample was treated with either 30 nM TP0903 (treated condition) or DMSO (untreated condition). Representative flow cytometric analysis of CART19 cells before RNA isolation (right). RNA-seq was performed on an Illumina […] by the Genomic Sequencing Core at Mayo Clinic.

[3] = stimulated CART cells (FIG. 18)
[4] = CART19 + irradiated JeKo-1, 24 hours, highest dose
[5] = CART19 + irradiated JeKo-1, 24 hours, highest dose (65 nM)

## CN1CCN(Cc2ccc(Nc3ncc(Cl)c(Nc4ccccc4S(=O)(=O)N(C)C)n3)cc2)CC1 [TP0903]
CART cells; 1:5 E:T, JEKO or primary B cells, increasing doses of TP0903, day 5
  expression of PD1, TIM3, and LAG3 inhibitory (exhaustion) receptors on CART cells: reduces; also recorded: downregulated in a dose depended manner
CART cells; CART19 with Jeko, Example 2
  inhibitory receptors on activated CART cells: significantly downregulated
[1]; [3]
  GATA-3: reduction
  P38: reduction
  P-JNK: reduction
  T-bet: reduction
[1]; stimulated CART cells, dose dependent (FIG. 18)
  phospho LCK: increase
CART19 and UTDs
  T cell expansion ex vivo and CART cell generation (CART19 and UTDs): enhanced
[2]; [4]
  GATA-3: inhibited
  T-bet: inhibited
[2]; [5]
  phosphorylation of LCK: modest inhibition
  phosphorylation of p38MAPK: modest inhibition
[2]; T cell lysates, CART19, Example 2 text
  phosphorylation of LCK: remarkably reduced
